# Key:
# Type in all cases: in vivo
# [1] = system: redroot pigweed (Amaranthus retroflexus, AMARE); test: Pre-emerge test, greenhouse herbicide activity screening; details: rated 14 days after application, 0 = no damage, 100 = complete death
# Outline: (§1)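 Rating: 0–100 visual injury, 14 DAA. Application: acetone, 187 l/ha, 15–1000 g ai/ha, flat-fan track sprayer with nozzle 40–45 cm above soil or canopy. Post-emerge runs used 0.25% v/v surfactant on 2–3 leaf plants.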
# [2] = system: field corn (Zea mays L., var. Dekalb 535, CORN); test: Pre-emerge test, crop safety; details: rated 14 days after application, 0 = no damage, 100 = complete death
# Outline: (§2)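 Herbicidal damage is scored 0 (none) to 100 (complete plant death) two weeks after a simulated field spray. Rates span 15–1000 g ai/ha, delivered in acetone at 187 l/ha. For post-emergence treatments, plants have 2–3 leaves and the spray carries 0.25% v/v non-ionic surfactant.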
# [3] = system: upland rice (Oryza sp., var. Tebonnet, RICE); test: Pre-emerge test, crop safety; details: rated 14 days after application, 0 = no damage, 100 = complete death
# Outline: as §2
# [4] = system: ivyleaf morningglory (Ipomoea hederacea, IPOHE); test: Post-emerge test, greenhouse herbicide activity screening; details: post-emerge, 14 days after application, rating scale 0-100
# Outline: (§3)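 Compounds in acetone were track-sprayed at 187 l/ha, 15–1000 g ai/ha, onto sandy loam pots. Pre-emerge seeds were sown one day before spraying, with surface watering afterwards. Post-emerge plants were at the 2–3 leaf stage and sprayed with 0.25% v/v non-ionic surfactant. Injury was rated 0–100 at 14 days.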
# [5] = system: johnsongrass (Sorghum halepense, SORHA); test: as above; details: post-emerge, 14 days after application, rating scale 0-100
# Outline: as §3
# [6] = system: barnyardgrass (Echinochloa crus-galli, ECHCG); test: as above; details: post-emerge, 14 days after application, rating scale 0-100
# Outline: as §3
# [7] = system: lambsquarters (Chenopodium album, CHEAL); test: as above; details: post-emerge, 14 days after application, rating scale 0-100
# Outline: as §3
# [8] = system: sicklepod (Cassia obtusifolia, CASOB); test: as above; details: post-emerge, 14 days after application, rating scale 0-100
# Outline: as §3
# [9] = system: green foxtail (Setaria viridis, SETVI); test: as above; details: post-emerge, 14 days after application, rating scale 0-100
# Outline: as §3
# [10] = system: large crabgrass (Digitaria sanguinalis, DIGSA); test: as above; details: post-emerge, 14 days after application, rating scale 0-100
# Outline: as §3
# [11] = system: velvetleaf (Abutilon theophrasti, ABUTH); test: as above; details: post-emerge, 14 days after application, rating scale 0-100
# Outline: as §3
# [12] = system: redroot pigweed (Amaranthus retroflexus, AMARE); test: as above; details: post-emerge, 14 days after application, rating scale 0-100
# Outline: as §3
# [13] = system: ivyleaf morningglory (Ipomoea hederacea, IPOHE); test: Pre-emerge test, greenhouse herbicide activity screening; details: rated 14 days after application, 0 = no damage, 100 = complete death
# Outline: (§4)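 Compounds in acetone were track-sprayed at 15–1000 g ai/ha: pre-emergence onto soil sown the previous day, then top-watered to incorporate and later bottom-watered; post-emergence onto 2–3 leaf plants with 0.25% v/v surfactant, bottom-watered only. Ratings on a 0–100 phytotoxicity scale were taken at day 14.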
# [14] = system: johnsongrass (Sorghum halepense, SORHA); test: as above; details: rated 14 days after application, 0 = no damage, 100 = complete death
# Outline: as §4
# [15] = system: barnyardgrass (Echinochloa crus-galli, ECHCG); test: as above; details: rated 14 days after application, 0 = no damage, 100 = complete death
# Outline: as §4
# [16] = system: lambsquarters (Chenopodium album, CHEAL); test: as above; details: rated 14 days after application, 0 = no damage, 100 = complete death
# Outline: as §4
# [17] = system: sicklepod (Cassia obtusifolia, CASOB); test: as above; details: rated 14 days after application, 0 = no damage, 100 = complete death
# Outline: as §4
# [18] = system: green foxtail (Setaria viridis, SETVI); test: as above; details: rated 14 days after application, 0 = no damage, 100 = complete death
# Outline: as §4
# [19] = system: large crabgrass (Digitaria sanguinalis, DIGSA); test: as above; details: rated 14 days after application, 0 = no damage, 100 = complete death
# Outline: as §4
# [20] = system: velvetleaf (Abutilon theophrasti, ABUTH); test: as above; details: rated 14 days after application, 0 = no damage, 100 = complete death
# Outline: as §4
# [21] = system: field corn (Zea mays L., var. Dekalb 535, CORN); test: Post-emerge test, crop safety; details: post-emerge, 14 days after application, rating scale 0-100
# Outline: as §1
# [22] = system: upland rice (Oryza sp., var. Tebonnet, RICE); test: Post-emerge test, crop safety; details: post-emerge, 14 days after application, rating scale 0-100
# Outline: as §1
smiles,measurement,setting,value
COc1c(Cl)cc(F)c(-n2c(=O)cc(C(F)(F)F)n(C)c2=O)c1NC(=O)C=Cc1ccc(Cl)cc1 [2-84],"Pre-emerge Herbicidal Activity, phytotoxicity rating (0-100), AMARE",[1]; 63 g ai/ha,80
same,"Pre-emerge Herbicidal Activity, phytotoxicity rating (0-100), AMARE",[1]; 250 g ai/ha,100
same,"Pre-emerge phytotoxicity rating (0-100), crop damage, CORN",[2]; 63 g ai/ha,0
same,"Pre-emerge phytotoxicity rating (0-100), crop damage, CORN",[2]; 250 g ai/ha,0
same,"Pre-emerge phytotoxicity rating (0-100), crop damage, RICE",[3]; 63 g ai/ha,0
same,"Pre-emerge phytotoxicity rating (0-100), crop damage, RICE",[3]; 250 g ai/ha,0
same,phytotoxicity rating IPOHE,[4]; 63 g ai/ha,30
same,phytotoxicity rating IPOHE,[4]; 250 g ai/ha,70
same,phytotoxicity rating SORHA,[5]; 63 g ai/ha,0
same,phytotoxicity rating SORHA,[5]; 250 g ai/ha,0
same,phytotoxicity rating ECHCG,[6]; 63 g ai/ha,0
same,phytotoxicity rating ECHCG,[6]; 250 g ai/ha,0
same,phytotoxicity rating CHEAL,[7]; 63 g ai/ha,30
same,phytotoxicity rating CHEAL,[7]; 250 g ai/ha,80
same,phytotoxicity rating CASOB,[8]; 63 g ai/ha,20
same,phytotoxicity rating CASOB,[8]; 250 g ai/ha,100
same,phytotoxicity rating SETVI,[9]; 63 g ai/ha,30
same,phytotoxicity rating SETVI,[9]; 250 g ai/ha,0
same,phytotoxicity rating DIGSA,[10]; 63 g ai/ha,0
same,phytotoxicity rating DIGSA,[10]; 250 g ai/ha,0
same,phytotoxicity rating ABUTH,[11]; 63 g ai/ha,30
same,phytotoxicity rating ABUTH,[11]; 250 g ai/ha,100
same,phytotoxicity rating AMARE,[12]; 63 g ai/ha,80
same,phytotoxicity rating AMARE,[12]; 250 g ai/ha,100
same,"Pre-emerge Herbicidal Activity, phytotoxicity rating (0-100), IPOHE",[13]; 63 g ai/ha,0
same,"Pre-emerge Herbicidal Activity, phytotoxicity rating (0-100), IPOHE",[13]; 250 g ai/ha,0
same,"Pre-emerge Herbicidal Activity, phytotoxicity rating (0-100), SORHA",[14]; 63 g ai/ha,0
same,"Pre-emerge Herbicidal Activity, phytotoxicity rating (0-100), SORHA",[14]; 250 g ai/ha,0
same,"Pre-emerge Herbicidal Activity, phytotoxicity rating (0-100), ECHCG",[15]; 63 g ai/ha,0
same,"Pre-emerge Herbicidal Activity, phytotoxicity rating (0-100), ECHCG",[15]; 250 g ai/ha,0
same,"Pre-emerge Herbicidal Activity, phytotoxicity rating (0-100), CHEAL",[16]; 63 g ai/ha,40
same,"Pre-emerge Herbicidal Activity, phytotoxicity rating (0-100), CHEAL",[16]; 250 g ai/ha,100
same,"Pre-emerge Herbicidal Activity, phytotoxicity rating (0-100), CASOB",[17]; 63 g ai/ha,0
same,"Pre-emerge Herbicidal Activity, phytotoxicity rating (0-100), CASOB",[17]; 250 g ai/ha,0
same,"Pre-emerge Herbicidal Activity, phytotoxicity rating (0-100), SETVI",[18]; 63 g ai/ha,0
same,"Pre-emerge Herbicidal Activity, phytotoxicity rating (0-100), SETVI",[18]; 250 g ai/ha,50
same,"Pre-emerge Herbicidal Activity, phytotoxicity rating (0-100), DIGSA",[19]; 63 g ai/ha,00
same,"Pre-emerge Herbicidal Activity, phytotoxicity rating (0-100), DIGSA",[19]; 250 g ai/ha,0
same,"Pre-emerge Herbicidal Activity, phytotoxicity rating (0-100), ABUTH",[20]; 63 g ai/ha,0
same,"Pre-emerge Herbicidal Activity, phytotoxicity rating (0-100), ABUTH",[20]; 250 g ai/ha,80
same,phytotoxicity rating CORN,[21]; 63 g ai/ha,10
same,phytotoxicity rating CORN,[21]; 250 g ai/ha,10
same,phytotoxicity rating RICE,[22]; 63 g ai/ha,0
same,phytotoxicity rating RICE,[22]; 250 g ai/ha,20

# Source: US6355799B1, “Substituted benzene compounds, process for their preparation, and herbicidal and defoliant compositions containing them” (ISK Americas Incorporated, priority 1997, dated 2002)
